Assays:
P. aeruginosa = assay: Whole cell assay: cytotoxicity of P. aeruginosa toward J774 cells (CytoTox 96, LDH release); conditions: percent cytotoxicity of treated P. aeruginosa toward J774 cells
LcrF (VirF) = LcrF (VirF) (Yersinia pestis, UniProt P28808); assay: biochemical; assay type: binding, Y. pseudotuberculosis
[1] = system: Yersinia pseudotuberculosis
ExsA = biological target: T1, ExsA (Pseudomonas aeruginosa, UniProt P26993); assay: In vitro activity of Mar inhibitors against ExsA: cell-free DNA binding assay; conditions: purified ExsA from P. aeruginosa, inhibition of DNA binding in vitro
T1 construct: made in house
T1 sequence (P26993 1-278): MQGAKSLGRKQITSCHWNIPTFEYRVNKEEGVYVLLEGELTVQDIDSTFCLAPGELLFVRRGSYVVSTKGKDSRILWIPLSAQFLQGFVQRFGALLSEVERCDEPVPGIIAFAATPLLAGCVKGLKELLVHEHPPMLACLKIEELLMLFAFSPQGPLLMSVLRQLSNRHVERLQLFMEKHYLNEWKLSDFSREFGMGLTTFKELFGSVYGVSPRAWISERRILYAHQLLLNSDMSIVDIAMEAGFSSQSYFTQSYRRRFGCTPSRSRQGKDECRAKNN

LcrF (VirF), sequence (P28808 whole entry, looked up): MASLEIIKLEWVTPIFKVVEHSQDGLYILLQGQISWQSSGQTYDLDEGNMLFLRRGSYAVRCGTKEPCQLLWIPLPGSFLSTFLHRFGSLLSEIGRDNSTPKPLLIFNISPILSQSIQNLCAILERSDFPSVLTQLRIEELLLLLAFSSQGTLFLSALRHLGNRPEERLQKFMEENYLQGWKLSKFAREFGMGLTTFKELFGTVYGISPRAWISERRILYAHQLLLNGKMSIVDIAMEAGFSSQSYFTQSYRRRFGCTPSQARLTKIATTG

COc1cc(C(=O)Nc2ccc(-c3nc4ccc([N+](=O)[O-])cc4n3O)cc2)ccc1F [AB]
Cytotoxicity at 50 μg/mL Pseudomonas (P. aeruginosa): * (percent cytotoxicities above 75% at 50 mg/mL)
EC50 (LcrF (VirF)): 10.1 to 25 µM
Cytotoxicity at 50 μg/mL Yersinia [1]: * (key: *: percent cytotoxicity above 75% at 50 μg/mL; **: cytotoxicities below 75% at 50 μg/mL)
EC50 (ExsA): 10.1 to 25 µM

O=C(Nc1ccc(-c2nc3ccc([N+](=O)[O-])cc3n2O)cc1)c1ccccc1O [AC]
Cytotoxicity at 50 μg/mL Pseudomonas (P. aeruginosa): * (percent cytotoxicities above 75% at 50 mg/mL)
EC50 (LcrF (VirF)): 10.1 to 25 µM
Cytotoxicity at 50 μg/mL Yersinia [1]: * (key: *: percent cytotoxicity above 75% at 50 μg/mL; **: cytotoxicities below 75% at 50 μg/mL)
EC50 (ExsA): 10.1 to 25 µM

CCc1cc(-c2nc3ccc([N+](=O)[O-])cc3n2O)ccc1NC(=O)/C=C/c1ccc(C)cc1 [AE]
Cytotoxicity at 50 μg/mL Pseudomonas (P. aeruginosa): * (percent cytotoxicities above 75% at 50 mg/mL)
EC50 (LcrF (VirF)): < 10 µM
Cytotoxicity at 50 μg/mL Yersinia [1]: * (key: *: percent cytotoxicity above 75% at 50 μg/mL; **: cytotoxicities below 75% at 50 μg/mL)
EC50 (ExsA): < 10 µM

CC(=O)c1ccc(C(=O)Nc2ccc(-c3nc4ccc([N+](=O)[O-])cc4n3O)nc2)cc1 [AG]
Cytotoxicity at 50 μg/mL Pseudomonas (P. aeruginosa): * (percent cytotoxicities above 75% at 50 mg/mL)
EC50 (LcrF (VirF)): > 25.1 µM
Cytotoxicity at 50 μg/mL Yersinia [1]: * (key: *: percent cytotoxicity above 75% at 50 μg/mL; **: cytotoxicities below 75% at 50 μg/mL)
EC50 (ExsA): 10.1 to 25 µM

O=C(Nc1ccc(-c2nc3ccc([N+](=O)[O-])cc3n2O)c(F)c1)c1ccc(F)cc1 [AH]
Cytotoxicity at 50 μg/mL Pseudomonas (P. aeruginosa): * (percent cytotoxicities above 75% at 50 mg/mL)
EC50 (LcrF (VirF)): 10.1 to 25 µM
Cytotoxicity at 50 μg/mL Yersinia [1]: * (key: *: percent cytotoxicity above 75% at 50 μg/mL; **: cytotoxicities below 75% at 50 μg/mL)
EC50 (ExsA): 10.1 to 25 µM

COc1cc(NC(=O)c2ccc(F)cc2)ccc1-c1nc2ccc([N+](=O)[O-])cc2n1O [AI]
Cytotoxicity at 50 μg/mL Pseudomonas (P. aeruginosa): * (percent cytotoxicities above 75% at 50 mg/mL)
EC50 (LcrF (VirF)): > 25.1 µM
Cytotoxicity at 50 μg/mL Yersinia [1]: * (key: *: percent cytotoxicity above 75% at 50 μg/mL; **: cytotoxicities below 75% at 50 μg/mL)
EC50 (ExsA): 10.1 to 25 µM

O=C(Nc1ccc(-c2nc3ccc([N+](=O)[O-])cc3n2O)cn1)c1ccc(F)cc1 [AJ]
Cytotoxicity at 50 μg/mL Pseudomonas (P. aeruginosa): * (percent cytotoxicities above 75% at 50 mg/mL)
EC50 (LcrF (VirF)): 10.1 to 25 µM
Cytotoxicity at 50 μg/mL Yersinia [1]: * (key: *: percent cytotoxicity above 75% at 50 μg/mL; **: cytotoxicities below 75% at 50 μg/mL)
EC50 (ExsA): 10.1 to 25 µM

O=C(/C=C/c1ccc(F)c(CP(=O)(O)O)c1)Nc1ccc(-c2nc3ccc([N+](=O)[O-])cc3n2O)cc1 [AM]
Cytotoxicity at 50 μg/mL Pseudomonas (P. aeruginosa): * (percent cytotoxicities above 75% at 50 mg/mL)
EC50 (LcrF (VirF)): 10.1 to 25 µM
Cytotoxicity at 50 μg/mL Yersinia [1]: * (key: *: percent cytotoxicity above 75% at 50 μg/mL; **: cytotoxicities below 75% at 50 μg/mL)
EC50 (ExsA): 10.1 to 25 µM

O=C(/C=C/c1ccc(F)cc1)Nc1ccc(-c2nc3ccc([N+](=O)[O-])cc3n2O)cn1 [AN]
Cytotoxicity at 50 μg/mL Pseudomonas (P. aeruginosa): * (percent cytotoxicities above 75% at 50 mg/mL)
EC50 (LcrF (VirF)): < 10 µM
Cytotoxicity at 50 μg/mL Yersinia [1]: * (key: *: percent cytotoxicity above 75% at 50 μg/mL; **: cytotoxicities below 75% at 50 μg/mL)
EC50 (ExsA): < 10 µM

O=C(/C=C/c1ccc(F)cc1)Nc1ccc(-c2nc3ccc([N+](=O)[O-])cc3n2O)nc1 [AO]
Cytotoxicity at 50 μg/mL Pseudomonas (P. aeruginosa): * (percent cytotoxicities above 75% at 50 mg/mL)
EC50 (LcrF (VirF)): 10.1 to 25 µM
Cytotoxicity at 50 μg/mL Yersinia [1]: * (key: *: percent cytotoxicity above 75% at 50 μg/mL; **: cytotoxicities below 75% at 50 μg/mL)
EC50 (ExsA): < 10 µM

O=C(/C=C/c1ccc(F)cc1F)Nc1ccc(-c2nc3ccc([N+](=O)[O-])cc3n2O)nc1 [AP]
Cytotoxicity at 50 μg/mL Pseudomonas (P. aeruginosa): * (percent cytotoxicities above 75% at 50 mg/mL)
EC50 (LcrF (VirF)): < 10 µM
Cytotoxicity at 50 μg/mL Yersinia [1]: * (key: *: percent cytotoxicity above 75% at 50 μg/mL; **: cytotoxicities below 75% at 50 μg/mL)
EC50 (ExsA): < 10 µM

O=C(/C=C/c1ccc(F)cc1F)Nc1ccc(-c2nc3ccc([N+](=O)[O-])cc3n2O)cn1 [AQ]
Cytotoxicity at 50 μg/mL Pseudomonas (P. aeruginosa): * (percent cytotoxicities above 75% at 50 mg/mL)
EC50 (LcrF (VirF)): < 10 µM
Cytotoxicity at 50 μg/mL Yersinia [1]: * (key: *: percent cytotoxicity above 75% at 50 μg/mL; **: cytotoxicities below 75% at 50 μg/mL)
EC50 (ExsA): < 10 µM

CCOP(=O)(Cc1cc(/C=C/C(=O)Nc2ccc(-c3nc4ccc([N+](=O)[O-])cc4n3O)cc2)ccc1F)OCC [AT]
Cytotoxicity at 50 μg/mL Pseudomonas (P. aeruginosa): * (percent cytotoxicities above 75% at 50 mg/mL)
EC50 (LcrF (VirF)): < 10 µM
Cytotoxicity at 50 μg/mL Yersinia [1]: * (key: *: percent cytotoxicity above 75% at 50 μg/mL; **: cytotoxicities below 75% at 50 μg/mL)
EC50 (ExsA): < 10 µM

O=C(/C=C/c1ccc(F)cc1)Nc1ccc(-c2nc3ncc([N+](=O)[O-])cc3n2O)c(F)c1 [AV]
Cytotoxicity at 50 μg/mL Pseudomonas (P. aeruginosa): * (percent cytotoxicities above 75% at 50 mg/mL)
EC50 (LcrF (VirF)): < 10 µM
Cytotoxicity at 50 μg/mL Yersinia [1]: * (key: *: percent cytotoxicity above 75% at 50 μg/mL; **: cytotoxicities below 75% at 50 μg/mL)
EC50 (ExsA): < 10 µM

O=C(/C=C/c1ccc(F)cc1)Nc1ccc(-c2nc3ccc([N+](=O)[O-])cc3n2O)c(F)c1 [AW]
Cytotoxicity at 50 μg/mL Pseudomonas (P. aeruginosa): * (percent cytotoxicities above 75% at 50 mg/mL)
EC50 (LcrF (VirF)): < 10 µM
Cytotoxicity at 50 μg/mL Yersinia [1]: ** (key: *: percent cytotoxicity above 75% at 50 μg/mL; **: cytotoxicities below 75% at 50 μg/mL)
EC50 (ExsA): 10.1 to 25 µM

CC(=O)c1ccc(C(=O)Nc2ccc(-c3nc4cc(C)c([N+](=O)[O-])cc4n3O)cc2)cc1 [BE]
Cytotoxicity at 50 μg/mL Pseudomonas (P. aeruginosa): * (percent cytotoxicities above 75% at 50 mg/mL)
EC50 (LcrF (VirF)): < 10 µM
Cytotoxicity at 50 μg/mL Yersinia [1]: * (key: *: percent cytotoxicity above 75% at 50 μg/mL; **: cytotoxicities below 75% at 50 μg/mL)
EC50 (ExsA): < 10 µM

COc1cc(NC(=O)c2ccc(C(C)=O)cc2)ccc1-c1nc2ccc([N+](=O)[O-])cc2n1O [BG]
Cytotoxicity at 50 μg/mL Pseudomonas (P. aeruginosa): ** (cytotoxicities below 75% at 50 mg/mL)
EC50 (LcrF (VirF)): > 25.1 µM
Cytotoxicity at 50 μg/mL Yersinia [1]: * (key: *: percent cytotoxicity above 75% at 50 μg/mL; **: cytotoxicities below 75% at 50 μg/mL)
EC50 (ExsA): 10.1 to 25 µM

COc1cc(NC(=O)/C=C/c2ccc(F)cc2)ccc1-c1nc2ccc([N+](=O)[O-])cc2n1O [BH]
Cytotoxicity at 50 μg/mL Pseudomonas (P. aeruginosa): * (percent cytotoxicities above 75% at 50 mg/mL)
EC50 (LcrF (VirF)): 10.1 to 25 µM
Cytotoxicity at 50 μg/mL Yersinia [1]: * (key: *: percent cytotoxicity above 75% at 50 μg/mL; **: cytotoxicities below 75% at 50 μg/mL)
EC50 (ExsA): 10.1 to 25 µM

O=C(Nc1ccc(-c2nc3ccc([N+](=O)[O-])cc3n2O)cc1)C1=Cc2ccccc2OC1 [BM]
Cytotoxicity at 50 μg/mL Pseudomonas (P. aeruginosa): * (percent cytotoxicities above 75% at 50 mg/mL)
EC50 (LcrF (VirF)): 10.1 to 25 µM
Cytotoxicity at 50 μg/mL Yersinia [1]: * (key: *: percent cytotoxicity above 75% at 50 μg/mL; **: cytotoxicities below 75% at 50 μg/mL)
EC50 (ExsA): 10.1 to 25 µM

O=C(/C=C/c1ccc(F)cc1)Nc1ccc(-c2nc3ccc([N+](=O)[O-])cc3n2OCP(=O)(O)O)cc1 [Compound AL, (2-{4-[(E)-3-(4-Fluoro-phenyl)-acryloylamino]-phenyl}-6-nitro-benzoimidazol-1-yloxymethyl)-phosphonic Acid]
Cytotoxicity at 50 μg/mL Pseudomonas (P. aeruginosa): * (percent cytotoxicities above 75% at 50 mg/mL)
EC50 (LcrF (VirF)): < 10 µM
Cytotoxicity at 50 μg/mL Yersinia [1]: ** (key: *: percent cytotoxicity above 75% at 50 μg/mL; **: cytotoxicities below 75% at 50 μg/mL)
EC50 (ExsA): < 10 µM

CCOP(=O)(COn1c(-c2ccc(NC(=O)/C=C/c3ccc(F)cc3)cc2)nc2ccc([N+](=O)[O-])cc21)OCC [Compound AS, (2-{4-[(E)-3-(4-Fluoro-phenyl)-acryloylamino]-phenyl}-6-nitro-benzoimidazol-1-yloxymethyl)-phosphonic Acid Diethyl Ester]
Cytotoxicity at 50 μg/mL Pseudomonas (P. aeruginosa): * (percent cytotoxicities above 75% at 50 mg/mL)
EC50 (LcrF (VirF)): > 25.1 µM
Cytotoxicity at 50 μg/mL Yersinia [1]: * (key: *: percent cytotoxicity above 75% at 50 μg/mL; **: cytotoxicities below 75% at 50 μg/mL)
EC50 (ExsA): 10.1 to 25 µM

O=C(/C=C/c1ccc(F)cc1)Nc1ccc(-c2nc3ccc([N+](=O)[O-])cc3n2O)cc1F [Compound AZ, (E)-N-[2-Fluoro-4-(1-hydroxy-6-nitro-1H-benzoimidazol-2-yl)-phenyl]-3-(4-fluoro-phenyl)-acrylamide]
Cytotoxicity at 50 μg/mL Pseudomonas (P. aeruginosa): * (percent cytotoxicities above 75% at 50 mg/mL)
EC50 (LcrF (VirF)): 10.1 to 25 µM
Cytotoxicity at 50 μg/mL Yersinia [1]: * (key: *: percent cytotoxicity above 75% at 50 μg/mL; **: cytotoxicities below 75% at 50 μg/mL)
EC50 (ExsA): 10.1 to 25 µM

N#Cc1ccc2nc(-c3ccc(NC(=O)/C=C/c4ccccc4)cc3)n(O)c2c1 [Compound A]
Cytotoxicity at 50 μg/mL Pseudomonas (P. aeruginosa): * (percent cytotoxicities above 75% at 50 mg/mL)
EC50 (LcrF (VirF)): 10.1 to 25 µM
Cytotoxicity at 50 μg/mL Yersinia [1]: * (key: *: percent cytotoxicity above 75% at 50 μg/mL; **: cytotoxicities below 75% at 50 μg/mL)
EC50 (ExsA): 10.1 to 25 µM

CC(=O)c1ccc(C(=O)Nc2ccc(-c3nc4ccc([N+](=O)[O-])cc4n3O)cc2F)cc1 [Compound BA, 4-Acetyl-N-[2-fluoro-4-(1-hydroxy-6-nitro-1H-benzoimidazol-2-yl)-phenyl]-benzamide]
Cytotoxicity at 50 μg/mL Pseudomonas (P. aeruginosa): * (percent cytotoxicities above 75% at 50 mg/mL)
EC50 (LcrF (VirF)): 10.1 to 25 µM
Cytotoxicity at 50 μg/mL Yersinia [1]: * (key: *: percent cytotoxicity above 75% at 50 μg/mL; **: cytotoxicities below 75% at 50 μg/mL)
EC50 (ExsA): < 10 µM

Cc1cc2nc(-c3ccc(NC(=O)/C=C/c4ccc(F)cc4)cc3)n(O)c2cc1[N+](=O)[O-] [Compound BC, (E)-3-(4-Fluoro-phenyl)-N-[4-(1-hydroxy-5-methyl-6-nitro-1H-benzoimidazol-2-yl)-phenyl]-acrylamide]
Cytotoxicity at 50 μg/mL Pseudomonas (P. aeruginosa): ** (cytotoxicities below 75% at 50 mg/mL)
EC50 (LcrF (VirF)): < 10 µM
Cytotoxicity at 50 μg/mL Yersinia [1]: ** (key: *: percent cytotoxicity above 75% at 50 μg/mL; **: cytotoxicities below 75% at 50 μg/mL)
EC50 (ExsA): < 10 µM
